Experimental data reported in patent publication US8778954B2, “Phenylpyridine derivative and medicinal agent comprising same” (Kowa Company, Ltd., priority 2009, dated 2014).
pEC50: −log10 of the molar value.

Experiments:
[1] = target: T1, angiotensin II type 1 receptor (Oryctolagus cuniculus, UniProt P34976); assay: Angiotensin II receptor antagonistic activity in isolated rabbit blood vessels (thoracic aorta ring, angiotensin II-induced contraction); type: cell-based; settings: 0.1 μM test compound, angiotensin II (10 nM)-induced contraction, read-out: Angiotensin II activity inhibitiom rate (%) at 0.1 μM concentration
T1 construct: By using a specimen of isolated rabbit blood vessels; from tissue; host or cells: rabbit (New Zealand White) thoracic aorta ring
T1 sequence (P34976 1-359): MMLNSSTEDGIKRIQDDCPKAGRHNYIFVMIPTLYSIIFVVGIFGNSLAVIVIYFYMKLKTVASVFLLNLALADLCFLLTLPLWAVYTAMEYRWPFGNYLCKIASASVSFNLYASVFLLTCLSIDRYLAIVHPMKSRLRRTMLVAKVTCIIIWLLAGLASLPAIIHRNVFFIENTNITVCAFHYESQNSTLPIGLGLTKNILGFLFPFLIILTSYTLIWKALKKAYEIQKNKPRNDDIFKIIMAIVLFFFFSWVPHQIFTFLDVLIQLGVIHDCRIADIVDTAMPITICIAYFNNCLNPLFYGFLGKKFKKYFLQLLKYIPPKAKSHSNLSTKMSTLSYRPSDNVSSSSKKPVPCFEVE

human PPARγ2 = target: T2, human PPARγ2 (Homo sapiens, UniProt P37231); assay: PPARγ activation activity, Gal4-PPARγ2 LBD luciferase transfection assay using COS7 cells; type: cell-based; settings: Gal4-human PPARγ2 LBD chimera, 16 hours, rosiglitazone = 100%
T2 construct: the amino acids 182 to 505 of human PPARγ2; expressed in transfected cells; host or cells: COS7 cells (African green monkey kidney)
T2 sequence (P37231 182-505): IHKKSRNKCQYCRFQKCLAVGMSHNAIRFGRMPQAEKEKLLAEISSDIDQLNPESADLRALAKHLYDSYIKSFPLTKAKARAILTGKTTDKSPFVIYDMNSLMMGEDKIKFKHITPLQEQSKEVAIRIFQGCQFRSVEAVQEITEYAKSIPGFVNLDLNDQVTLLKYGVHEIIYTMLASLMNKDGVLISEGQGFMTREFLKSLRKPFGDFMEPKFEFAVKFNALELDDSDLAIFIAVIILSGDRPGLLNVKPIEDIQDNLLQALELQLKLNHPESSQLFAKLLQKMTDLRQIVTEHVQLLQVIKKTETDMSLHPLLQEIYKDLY
Description: The agonistic activity of the compounds of the invention on PPARγ was measured based on the transfection assay using COS7 cells (DS Pharma Biomedical Co., Ltd., Osaka, Japan), which are the cell line derived from the kidney of the African green monkey. COS7 cells were cultured under 5% CO2 concentration, and DMEM medium containing 10% fetal bovine serum, glutamic acid, and antibiotics was used as a medium.
As an expression vector, a chimera in which DNA binding domain of Gal4, which is a yeast transcription factor, and ligand binding domain of human PPARγ2 are fused, i.e., a fused product between the amino acids 1 to 147 of Gal4 transcription factor and the amino acids 182 to 505 of human PPARγ2, was used. Furthermore, as a reporter vector, a firefly luciferase containing five copies of Gal4 recognition sequence in the promoter region was used. Plasmid transfection to the cells was performed according to a method which uses jetPEI (trade name, manufactured by Funakoshi Co., Ltd., Tokyo, Japan). Furthermore, β-galactosidase expression vector was employed as an internal standard.
After the transfection of the cells, the medium was replaced with a DMEM medium (containing 1% serum) added with the test compound, and the cells were further cultured for 16 hours. After that, the luciferase activity and β-galactosidase activity in the cell lysis solution were measured.
For the present test, dimethyl sulfoxide (DMSO) was used for dissolution and dilution of the test compounds, and during the cell treatment, the DMSO concentration in DMEM medium (containing 1% serum) was adjusted to 0.1%. As a positive compound, rosiglitazone (trade name, manufactured by ALEXIS Corporation, Switzerland) was used. The luciferase activity (%) of the test compounds (1 to 30 μmol/L) was calculated when the luciferase activity of rosiglitazone (3 to 10 μmol/L) is 100% and the luciferase activity in the absence of the test compound is 0%. The 50% effective concentration of the test compound (EC50, 50% effect concentration) was calculated by using SAS Preclinical Package Ver 5.0 (trade name, manufactured by SAS institute Japan Co., Tokyo, Japan), which is a statistical analysis program.
EC50 values of these compounds are described in Table 2. […] Under the same condition, the PPARγ activation activity of telmisartan, i.e., EC50, was 1 to 5 μM.

Row | inhibition at 0.1 µM [1] [%] | SMILES | pEC50 (human PPARγ2)
1 | 100 | CCCCc1nc(C)n(-c2ncc(OC)cn2)c(=O)c1Cc1ccc(-c2ccccc2-c2nnn[nH]2)nc1 [Example 1, 5-{{6-[2-(1H-tetrazol-5-yl)phenyl]pyridin-3-yl}methyl}-6-butyl-3-(5-methoxypyrimidin-2-yl)-2-methylpyrimidin-4(3H)-one] | 
2 | 90.8 | CCCCc1nc(C)n(-c2ncc(OCC)cn2)c(=O)c1Cc1ccc(-c2ccccc2-c2nnn[nH]2)nc1 [Example 2, 5-{{6-[2-(1H-tetrazol-5-yl)phenyl]pyridin-3-yl}methyl}-6-butyl-3-(5-ethoxypyrimidin-2-yl)-2-methylpyrimidin-4(3H)-one] | 
3 |  | CCCCc1nc(C(C)C)n(-c2ncc(OCC)cn2)c(=O)c1Cc1ccc(-c2ccccc2-c2nnn[nH]2)nc1 [Example 6, 5-{{6-[2-(1H-tetrazol-5-yl)phenyl]pyridin-3-yl}methyl}-6-butyl-3-(5-ethoxypyrimidin-2-yl)-2-isopropylpyrimidin-4(3H)-one] | 5.87
4 | 100 | CCCCc1nc(C)n(-c2ncc(OCCSC)cn2)c(=O)c1Cc1ccc(-c2ccccc2-c2nnn[nH]2)nc1 [Example 12, 5-{{6-[2-(1H-tetrazol-5-yl)phenyl]pyridin-3-yl}methyl}-6-butyl-2-methyl-3-{5-[2-(methylthio)ethoxy]pyrimidin-2-yl}pyrimidin-4(3H)-one] | 
5 | 100 | CCCCc1nc(C)n(-c2ncc(OCCS(C)(=O)=O)cn2)c(=O)c1Cc1ccc(-c2ccccc2-c2nnn[nH]2)nc1 [Example 13, 5-{{6-[2-(1H-tetrazol-5-yl)phenyl]pyridin-3-yl}methyl}-6-butyl-2-methyl-3-{5-[2-(methylsulfonyl)ethoxy]pyrimidin-2-yl}pyrimidin-4(3H)-one] | 
6 | 59.3 | CCCCc1nc(C)n(-c2ccccn2)c(=O)c1Cc1ccc(-c2ccccc2-c2noc(=O)[nH]2)nc1 [Example 14, 3-{2-{5-{[4-butyl-2-methyl-6-oxo-1-(pyridin-2-yl)-1,6-dihydropyrimidin-5-yl]methyl}pyridin-2-yl}phenyl}-1,2,4-oxadiazol-5(4H)-one] | 
7 | 72.9 | CCCCc1nc(C)n(-c2ncc(OC)cn2)c(=O)c1Cc1ccc(-c2ccccc2-c2noc(=O)[nH]2)nc1 [Example 16, 3-{2-{5-{[4-butyl-1-(5-methoxypyrimidin-2-yl)-2-methyl-6-oxo-1,6-dihydropyrimidin-5-yl]methyl}pyridin-2-yl}phenyl}-1,2,4-oxadiazol-5(4H)-one] | 
8 |  | CCCCc1nc(CC)n(-c2ncc(OC)cn2)c(=O)c1Cc1ccc(-c2ccccc2-c2noc(=O)[nH]2)nc1 [Example 18, 3-{2-{5-{[4-butyl-2-ethyl-1-(5-methoxypyrimidin-2-yl)-6-oxo-1,6-dihydropyrimidin-5-yl]methyl}pyridin-2-yl}phenyl}-1,2,4-oxadiazol-5(4H)-one] | 5.47
9 |  | CCCCc1nc(CC)n(-c2ncc(OCC)cn2)c(=O)c1Cc1ccc(-c2ccccc2-c2noc(=O)[nH]2)nc1 [Example 19, 3-{2-{5-{[4-butyl-1-(5-ethoxypyrimidin-2-yl)-2-ethyl-6-oxo-1,6-dihydropyrimidin-5-yl]methyl}pyridin-2-yl}phenyl}-1,2,4-oxadiazol-5(4H)-one] | 5.82
10 |  | CCCCc1nc(C(C)C)n(-c2ncc(OC)cn2)c(=O)c1Cc1ccc(-c2ccccc2-c2noc(=O)[nH]2)nc1 [Example 20, 3-{2-{5-{[4-butyl-2-isopropyl-1-(5-methoxypyrimidin-2-yl)-6-oxo-1,6-dihydropyrimidin-5-yl]methyl}pyridin-2-yl}phenyl}-1,2,4-oxadiazol-5(4H)-one] | 6.07
11 |  | CCCCc1nc(C2CCC2)n(-c2ncc(OC)cn2)c(=O)c1Cc1ccc(-c2ccccc2-c2noc(=O)[nH]2)nc1 [Example 24, 3-{2-{5-{[4-butyl-2-cyclobutyl-1-(5-methoxypyrimidin-2-yl)-6-oxo-1,6-dihydropyrimidin-5-yl]methyl}pyridin-2-yl}phenyl}-1,2,4-oxadiazol-5(4H)-one] | 5.84
12 |  | CCCCc1nc(C2CCC2)n(-c2ncc(OCC)cn2)c(=O)c1Cc1ccc(-c2ccccc2-c2noc(=O)[nH]2)nc1 [Example 25, 3-{2-{5-{[4-butyl-2-cyclobutyl-1-(5-ethoxypyrimidin-2-yl)-6-oxo-1,6-dihydropyrimidin-5-yl]methyl}pyridin-2-yl}phenyl}-1,2,4-oxadiazol-5(4H)-one] | 6.09
13 |  | CCCCc1nc(C2CCCC2)n(-c2ncc(OCC)cn2)c(=O)c1Cc1ccc(-c2ccccc2-c2noc(=O)[nH]2)nc1 [Example 26, 3-{2-{5-{[4-butyl-2-cyclopentyl-1-(5-ethoxypyrimidin-2-yl)-6-oxo-1,6-dihydropyrimidin-5-yl]methyl}pyridin-2-yl}phenyl}-1,2,4-oxadiazol-5(4H)-one] | 6.42
14 |  | CCCCc1nc(C2CCCCC2)n(-c2ncc(OCC)cn2)c(=O)c1Cc1ccc(-c2ccccc2-c2noc(=O)[nH]2)nc1 [Example 27, 3-{2-{5-{[4-butyl-2-cyclohexyl-1-(5-ethoxypyrimidin-2-yl)-6-oxo-1,6-dihydropyrimidin-5-yl]methyl}pyridin-2-yl}phenyl}-1,2,4-oxadiazol-5(4H)-one] | 6.17
15 | 86.5 | CCCCc1nc(C)n(-c2ncc(OCCSC)cn2)c(=O)c1Cc1ccc(-c2ccccc2-c2noc(=O)[nH]2)nc1 [Example 28, 3-{2-{5-{{4-butyl-2-methyl-1-{5-[2-(methylthio)ethoxy]pyrimidin-2-yl}-6-oxo-1,6-dihydropyrimidin-5-yl}methyl}pyridin-2-yl}phenyl}-1,2,4-oxadiazol-5(4H)-one] | 
16 | 96.3 | CCCCc1nc(C)n(-c2ncc(OCCS(C)(=O)=O)cn2)c(=O)c1Cc1ccc(-c2ccccc2-c2noc(=O)[nH]2)nc1 [Example 29, 3-{2-{5-{{4-butyl-2-methyl-1-{5-[2-(methylsulfonyl)ethoxy]pyrimidin-2-yl}-6-oxo-1,6-dihydropyrimidin-5-yl}methyl}pyridin-2-yl}phenyl}-1,2,4-oxadiazol-5(4H)-one] | 
17 |  | CCCCc1nc(C)n(-c2ncc(C(F)(F)F)cc2Cl)c(=O)c1Cc1ccc(-c2ccccc2-c2nnn[nH]2)cn1 [Example 32, 5-{{5-[2-(1H-tetrazol-5-yl)phenyl]pyridin-2-yl}methyl}-6-butyl-3-[3-chloro-5-(trifluoromethyl)pyridin-2-yl]-2-methylpyrimidin-4(3H)-one] | 5.56

Row | SMILES | inhibition at 0.1 µM [1] [%] | pEC50 (human PPARγ2)
18 | CCCCc1nc(C)n(-c2cc(C)ccn2)c(=O)c1Cc1ccc(-c2ccccc2-c2noc(=O)[nH]2)nc1 [Example 15, 3-{2-{5-{[4-butyl-2-methyl-1-(4-methylpyridin-2-yl)-6-oxo-1,6-dihydropyrimidin-5-yl]methyl}pyridin-2-yl}phenyl}-1,2,4-oxadiazol-5(4H)-one] | 78.3 | 5.44
19 | CCCCc1nc(C)n(-c2ncc(OCC)cn2)c(=O)c1Cc1ccc(-c2ccccc2-c2noc(=O)[nH]2)nc1 [Example 17, 3-{2-{5-{[4-butyl-1-(5-ethoxypyrimidin-2-yl)-2-methyl-6-oxo-1,6-dihydropyrimidin-5-yl]methyl}pyridin-2-yl}phenyl}-1,2,4-oxadiazol-5(4H)-one] | 52.1 | 5.51
20 | CCCCc1nc(C2CC2)n(-c2ncc(OC)cn2)c(=O)c1Cc1ccc(-c2ccccc2-c2noc(=O)[nH]2)nc1 [Example 22, 3-{2-{5-{[4-butyl-2-cyclopropyl-1-(5-methoxypyrimidin-2-yl)-6-oxo-1,6-dihydropyrimidin-5-yl]methyl}pyridin-2-yl}phenyl}-1,2,4-oxadiazol-5(4H)-one] | 59.5 | 5.81
